These are literature values, as cited in PMC11938273 (Journal of Chemical Information and Modeling, 2025).

The conditions of this data set: in vivo; cited from earlier work.
As to `C[C@@](Cc1ccc(O)c(O)c1)(NN)C(=O)O` [Carbidopa, (2S)-3-(3,4-Dihydroxyphenyl)-2-hydrazino-2-methylpropanoic acid], the CNS status entry is “Negative”.

Consider `Cc1ccc(-c2cc(C(F)(F)F)nn2-c2ccc(S(N)(=O)=O)cc2)cc1` [Celecoxib, 4-[5-(4-Methylphenyl)-3-(trifluoromethyl)-1H-pyrazol-1-yl]benzenesulfonamide], for which the CNS status entry is “Negative”.

Consider `CN/C(=N/CCSCc1nc[nH]c1C)NC#N` [Cimetidine, 1-Cyano-2-methyl-3-(2-{[(4-methyl-1H-imidazol5-yl)methyl]sulfanyl}ethyl)guanidine], for which the CNS status entry is given as “Efflux transporter substrate”.

Turning to `COc1ccc(OC)c(CN(C(C)=O)c2cc(F)ccc2Oc2ccccc2)c1` [DAA1106, N-(2,5-dimethoxybenzyl)-N-(5-fluoro-2-phenoxyphenyl)acetamide], the CNS status entry is recorded as “Positive”.

On to `CN(C)Cc1ccccc1Sc1ccc(C#N)cc1N` [DASB, 3-Amino-4-((2-((dimethylamino)methyl)phenyl)thio)benzonitrile], for which the CNS status entry is “Positive”.

As for `COc1cccc2c1C(=O)c1c(O)c3c(c(O)c1C2=O)C[C@@](O)(C(C)=O)C[C@@H]3O[C@H]1C[C@H](N)[C@H](O)[C@H](C)O1` [Daunorubicin, (1S,3S)-3-Acetyl-3,5,12-trihydroxy-10-methoxy-6,11-dioxo-1,2,3,4,6,11-hexahydro-1-tetracenyl 3-amino-2,3,6-trideoxy-α-L-lyxo-hexopyranoside], the CNS status entry is given as “Efflux transporter substrate”.

In the case of `COc1cccc2c1C(=O)c1c(O)c3c(c(O)c1C2=O)C[C@@](O)(C(=O)CO)C[C@@H]3O[C@H]1C[C@H](N)[C@H](O)[C@H](C)O1` [Doxorubicin, (1S,3S)-3-Glycoloyl-3,5,12-trihydroxy-10-methoxy-6,11-dioxo-1,2,3,4,6,11-hexahydro-1-tetracenyl 3-amino-2,3,6-trideoxy-α-L-lyxo-hexopyranoside], the CNS status entry is “Efflux transporter substrate”.

Regarding `CCN(CC)C(=O)/C(C#N)=C/c1cc(O)c(O)c([N+](=O)[O-])c1` [Entacapone, (2E)-2-Cyano-3-(3,4-dihydroxy-5-nitrophenyl)-N,N-diethylacrylamide], the CNS status result is recorded as “Negative”.

Take `CCN1CCC[C@H]1CNC(=O)c1cc(I)cc(OC)c1OC` [Epidepride, (S)-N-((1-ethylpyrrolidin-2-yl)methyl)-5-iodo-2,3-dimethoxybenzamide]: the CNS status result is “Positive”.

In the case of `COc1cccc2c1C(=O)c1c(O)c3c(c(O)c1C2=O)C[C@@](O)(C(=O)CO)C[C@@H]3O[C@H]1C[C@H](N)[C@@H](O)[C@H](C)O1` [Epirubicin, (1S,3S)-3-Glycoloyl-3,5,12-trihydroxy-10-methoxy-6,11-dioxo-1,2,3,4,6,11-hexahydro-1-tetracenyl 3-amino-2,3,6-trideoxy-α-L-arabino-hexopyranoside], the CNS status result is listed as “Efflux transporter substrate”.

`C#Cc1cccc(Nc2ncnc3cc(OCCOC)c(OCCOC)cc23)c1` [Erlotinib, N-(3-Ethynylphenyl)-6,7-bis(2-methoxyethoxy)-4-quinazolinamine]: the CNS status result is “Efflux transporter substrate”.

Turning to `CCOC(=O)c1cncn1[C@H](C)c1ccccc1` [Etomidate, (R)-ethyl 1-(1-phenylethyl)-1H-imidazole-5-carboxylate], the CNS status result is “Positive”.

Regarding `COc1cc([C@@H]2c3cc4c(cc3[C@@H](O[C@@H]3O[C@@H]5CO[C@@H](C)O[C@H]5[C@H](O)[C@H]3O)[C@H]3COC(=O)[C@H]23)OCO4)cc(OC)c1O` [Etoposide, (5S,5aR,8aR,9R)-9-(4-Hydroxy-3,5-dimethoxyphenyl)-8-oxo-5,5a,6,8,8a,9-hexahydrofuro[3′,4′:6,7]naphtho[2,3-d][1,3]dioxol-5-yl 4,6-O-[(1R)-ethylidene]-β-D-glucopyranoside], the CNS status entry is “Efflux transporter substrate”.

For the compound `Cc1ccc([C@H]2C[C@@H]3CC[C@H]([C@H]2C(=O)OCCF)N3C/C=C/I)cc1` [FE-PE2i, 2-fluoroethyl (1R,2S,3S,5S)-8-((E)-3-iodoallyl)-3-(p-tolyl)-8-azabicyclo[3.2.1]octane-2-carboxylate], the CNS status entry is reported as “Positive”.

Consider `CCSC(=O)c1c(CC)nc(-c2ccccc2)c(C(=O)OCC[18F])c1CC` [FE@SUPPY, 5-(2-[18F]fluoroethyl)2,4-diethyl-3-(ethylsulfanylcarbonyl)-6-phenylpyridine-5-carboxylate], for which the CNS status result was “Negative”.

Turning to `C=CCN1CCC[C@H]1CNC(=O)c1cc(CCCF)cc(OC)c1OC` [Fallypride, (S)-N-((1-allylpyrrolidin-2-yl)methyl)-1-(5-(3-fluoropropyl)-2,3-dimethoxyphenyl)ethenamine], the CNS status entry is listed as “Positive”.

As for `CN1Cc2c(C(=O)OCCF)ncn2-c2ccc(F)cc2C1=O` [Fluoroethylflumazenil (FFMZ), 2-Fluoroethyl 8-fluoro-5-methyl-6-oxo-5,6-dihydro-4H-benzo [f]imidazo[1,5-a] [1, 4]diazepine-3-carboxylate], the CNS status result is recorded as “Positive”.

On to `O=[N+]([O-])c1nccn1CC(O)CF` (stereo not drawn) [Fluoromisonidazole (FMISO), 1-Fluoro-3-(2-nitro-1H-imidazol-1-yl)propan-2-ol], for which the CNS status result is on record as “Positive”.

Turning to `CNc1ccc(-c2nc3ccc(O)cc3s2)cc1F` [Flutemetamol, 2-(3-fluoro-4-(methylamino)phenyl)benzo[d]thiazol-6-ol], the CNS status result was “Positive”.

As to `C[C@]12CC[C@@H]3c4ccc(O)cc4C[C@@H](CCCCCCCCC[S+]([O-])CCCC(F)(F)C(F)(F)F)[C@H]3[C@@H]1CC[C@@H]2O` (stereo partly drawn) [Fulvestrant, (7α,17β)-7-{9-[(4,4,5,5,5-Pentafluoropentyl)sulfinyl]nonyl}estra-1(10),2,4-triene-3,17-diol], the CNS status result is “Negative”.

For `COC(=O)N1CCN(C(=O)Cc2ccc(Cl)c(Cl)c2)[C@H](CN2CCCC2)C1` [GR89696, (R)-methyl 4-(2-(3,4-dichlorophenyl)acetyl)-3-(pyrrolidin-1-ylmethyl)piperazine-1-carboxylate], the CNS status result is “Positive”.

As for `CCC1=C(C)CN(C(=O)NCCc2ccc(S(=O)(=O)NC(=O)N[C@H]3CC[C@H](C)CC3)cc2)C1=O` [Glimepiride, 3-Ethyl-4-methyl-N-[2-(4-{[(trans-4-methylcyclohexyl)carbamoyl]sulfamoyl}phenyl)ethyl]-2-oxo-2,5-dihydro-1H-pyrrole-1-carboxamide], the CNS status entry is listed as “Negative”.

Regarding `CCOc1ccc(-c2nc3cc(-c4nc5cc(N6CCN(C)CC6)ccc5[nH]4)ccc3[nH]2)cc1` [Hoechst 33342, 2′-(4-Ethoxyphenyl)-5-(4-methyl-1-piperazinyl)-1H,1′H-2,5′-bibenzimidazole], the CNS status result was “Efflux transporter substrate”.

In the case of `COC(=O)[C@H]1[C@@H](c2ccc(I)cc2)C[C@@H]2CC[C@H]1N2C/C=C/I` [IPCIT, (1R,2S,3S,5S)-methyl 8-((E)-3-iodoallyl)-3-(4-iodophenyl)-8-azabicyclo[3.2.1]octane-2-carboxylate], the CNS status entry is listed as “Positive”.
